2 molecules from patent US10154955B2, “Compositions including bauhinia, methods of making and using the same in skin anti-aging and other skin applications” (ACCESS BUSINESS GROUP INTERNATIONAL LLC, priority 2016, dated 2018) can be followed below.

Data set [1] can be described thus: Cell toxicity-CTG in HepG2 cells. The data set is classed as cell-based. As to conditions: human, FIG. 5. As for the experimental part:
On Day 1 of the procedure, Hep G2 [HEPG2] cells were plated on 96-well cell culture plates. To do so, disk was trypsinized and the cell density was determined. The cell slurry was diluted to the required volume at a density of 625,000 cells/ml. 160 ul/well of the cell slurry was dispensed onto assay plates. (100,000 cells per well). The assay plates were incubated overnight at 37 degrees C., 5% CO2 under humidified conditions. On Day 2, the cells were treated with […] and Hydroquinone or Vitamin C as a reference. 200× compounds were prepared in 100% DMSO. Transfer 5 ul 200× compound was transferred to 95 ul completed medium (MEM with 10% FBS), and mixed 5 times. 20 ul 10× compound solution was transferred onto assay plates. The assay plates were incubated at 37 degrees C., 5% CO2 under humidified conditions.

The test system of the next data set is Hep G2 [HEPG2] cells. In words: Anti-carbonylation assay (protein carbonyl ELISA after H2O2 treatment). Type of data set: cell-based. As to conditions: 3 mM H2O2 4 hr, replicate values. As for the experimental part: The purpose of this experiment was to test […] on anti-carbonylation assay using Hep G2 [HEPG2] (ATCC#HB-8065) cell line. The carbonylation process is related to protein degeneration and is similar to oxidation and glycation. On Day 1 of the procedure, Hep G2 [HEPG2] cells were plated on 96-well cell culture plates. To do so, disk was trypsinized and the cell density was determined. The cell slurry was diluted to the required volume at a density of 625,000 cells/ml. 160 ul/well of the cell slurry was dispensed onto assay plates. (100,000 cells per well). The assay plates were incubated overnight at 37 degrees C., 5% CO2 under humidified conditions. On Day 2, the cells were treated with […] and Hydroquinone or Vitamin C as a reference. 200× compounds were prepared in 100% DMSO. Transfer 5 ul 200× compound was transferred to 95 ul completed medium (MEM with 10% FBS), and mixed 5 times. 20 ul 10× compound solution was transferred onto assay plates. The assay plates were incubated at 37 degrees C., 5% CO2 under humidified conditions. Day 3 included treatment with H2O2. 30 mM H2O2 solution was prepared and 20 ul/well of H2O2 solution was dispensed onto assay plates (H2O2 final conc. 3 mM). The assay plates were incubated for 4 hr at 37 degrees C., 5% CO2 under humidified conditions. Following the incubation, the cell culture medium was discarded and cells once washed once with PBS. 60 ul PBS was added onto assay plate, frozen at -80° C. Frozen samples were recovered 3 times. […] The liquid supernatant was then transferred to compound plate. 5 ul of each cell lysis was obtained and the protein concentration was tested. The protein concentration was adjusted to 5 μg/ml with PBS and reduced BSA (total protein conc. 10 μg/ml), and mixed 5 times. 100 uL of the 5 ug/ml samples was then transferred onto the 96-well Protein Binding Plate, and incubated in 4° C. overnight. To perform ELISA assay on Day 5, the wells were washed 3 times with 250 μL PBS per well and excess wash solution removed. 100 μL of the 0.04 mg/ml DNPH Working Solution was added and the plates were incubated for 45 minutes at room temperature in the dark. The plates were then washed 5 times with 250 μL of PBS/Ethanol (1:1, v/v) with incubation on an orbital shaker for 5 minutes. Next, the plates were washed 2 times with 250 μL of PBS. 200 μL of Blocking Solution was added per well and the plates were incubated for 2 hours at room temperature on an orbital shaker, and then washed 3 times with 250 μL of 1× Wash Buffer with thorough aspiration between each wash. 100 μL anti-DNP antibody was added and the plates were incubated for 1 hour at room temperature on an orbital shaker. Next, the strip wells were washed 3 times (1× wash buffer), 100 μL of the diluted HRP conjugated secondary antibody was added to all wells and plates were incubated for 1 hour at room temperature on an orbital shaker. The strip wells were then washed 5 times (1× wash buffer). The Substrate Solution was warmed to room temperature and 100 μL of Substrate Solution was added to each well, 5 20 min. The enzyme reaction was stopped by adding 100 μL of Stop Solution to each well. […] Data Process included: • Signal=Sample 450 nm Signal-10 ug/ml Reduced BSA Signal • Protein Carbonyl Conc. (PCC)=(Signal-Y intercept)/Slope • % Inh=(Max PCC-Sample PCC)/(Max PCC-Min PCC)×100 • Max PCC was obtained from the cells treated with H2O2 • Min PCC was obtained from none treated cells • IC50 was calculated using GraphPad Prism V5.0 software

Values after ≈ are worked out from the molar mass of the structure shown. Values joined by “and” are separate entries in the source; they are usually repeats but may differ in a detail not shown here. Equal values may be shown once.

`Oc1ccc(O)cc1` [Hydroquinone] displayed an IC50 in data set [1] of 8.44 µg/mL (≈ 76.7 µM).

In the case of `O=C1O[C@H]([C@@H](O)CO)C(O)=C1O` [Vit. C, Vitamin C], the Carbonylation inhibition with Hep G2 [HEPG2] cells (33 ug/ml) was 28.6%; in the data set with Hep G2 [HEPG2] cells (100 ug/ml), 64.6%; with Hep G2 [HEPG2] cells (300 ug/ml), 49.1% and 76.2%. Further, the inhibition at 33 µg/mL in the data set on Hep G2 [HEPG2] cells (Homo sapiens, HepG2, 4 h, 33 ug/ml) came to 33.5%. Besides, the inhibition at 100 µg/mL in the data set on Hep G2 [HEPG2] cells (Homo sapiens, HepG2, 4 h, 100 ug/ml) amounted to 46.1%.
